Laboratory results taken from the supplement of paper PMC10307832.

Experiments:
Assay in all cases: relative viability (nuclei count vs DMSO), 5 days (fraction); higher = more cells survive
[1] = system: PC-3 [JPC-3]
Method in brief: (§1)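 Each reported value is a median over duplicate plates. It expresses relative viability: treated-well nuclei count divided by vehicle-well nuclei count. Lung cancer cell lines in 1536-well plates were dosed by pin tool a day after seeding, alone with one drug or with a fixed anchor-drug dose plus five library-drug doses (not always all listed) in √10 steps, and nuclei were counted after 5 days.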

[2] = system: A-427
Method in brief: as §1

[3] = system: SK-LU-1
Method in brief: as §1

[4] = system: NCI-H1792
Method in brief: as §1

[5] = system: NCI-H522
Method in brief: as §1

[6] = system: LC-2-ad
Method in brief: as §1

[7] = system: HOP-62
Method in brief: as §1

[8] = system: NCI-H1734
Method in brief: as §1

[9] = system: HCC-78
Method in brief: as §1

[10] = system: RERF-LC-KJ
Method in brief: as §1

[11] = system: NCI-H2126
Method in brief: as §1

[12] = system: NCI-H358
Method in brief: as §1

[13] = system: HCC-15
Method in brief: as §1

[14] = system: NCI-H1975
Method in brief: as §1

[15] = system: NCI-H1915
Method in brief: as §1

[16] = system: SW 1573
Method in brief: as §1

[17] = system: NCI-H2347
Method in brief: as §1

[18] = system: NCI-H1755
Method in brief: as §1

[19] = system: LXF-289
Method in brief: as §1

[20] = system: NCI-H647
Method in brief: as §1

[21] = system: NCI-H2342
Method in brief: as §1

## COc1cc2nccc(Oc3ccc(NC(=O)Nc4cc(C)on4)c(Cl)c3)c2cc1OC [Tivozanib] + Nc1ncn([C@H]2C[C@H](O)[C@@H](CO)O2)c(=O)n1 [Decitabine] (partner 2 µM)
[1]; first compound 0.01581 µM
  relative viability: 0.843
[1]; first compound 0.05 µM
  relative viability: 0.805
[1]; first compound 0.1581 µM
  relative viability: 0.815
[1]; first compound 0.5 µM
  relative viability: 0.831
[2]; first compound 0.005 µM
  relative viability: 0.566
[2]; first compound 0.01581 µM
  relative viability: 0.551
[2]; first compound 0.05 µM
  relative viability: 0.575
[2]; first compound 0.1581 µM
  relative viability: 0.566
[2]; first compound 0.5 µM
  relative viability: 0.543
[3]; first compound 0.005 µM
  relative viability: 0.647
[3]; first compound 0.01581 µM
  relative viability: 0.643
[3]; first compound 0.05 µM
  relative viability: 0.644
[3]; first compound 0.1581 µM
  relative viability: 0.392
[3]; first compound 0.5 µM
  relative viability: 0.618
[4]; first compound 0.005 µM
  relative viability: 0.514
[4]; first compound 0.01581 µM
  relative viability: 0.538
[4]; first compound 0.05 µM
  relative viability: 0.574
[4]; first compound 0.5 µM
  relative viability: 0.499
[5]; first compound 0.005 µM
  relative viability: 0.702
[5]; first compound 0.01581 µM
  relative viability: 0.68
[5]; first compound 0.05 µM
  relative viability: 0.696
[5]; first compound 0.1581 µM
  relative viability: 0.665
[5]; first compound 0.5 µM
  relative viability: 0.577
[6]; first compound 0.005 µM
  relative viability: 0.835
[6]; first compound 0.01581 µM
  relative viability: 0.681
[6]; first compound 0.05 µM
  relative viability: 0.77
[6]; first compound 0.1581 µM
  relative viability: 0.58
[6]; first compound 0.5 µM
  relative viability: 0.57
[7]; first compound 0.005 µM
  relative viability: 0.247
[7]; first compound 0.01581 µM
  relative viability: 0.187
[7]; first compound 0.05 µM
  relative viability: 0.2
[7]; first compound 0.1581 µM
  relative viability: 0.256
[7]; first compound 0.5 µM
  relative viability: 0.223
[8]; first compound 0.005 µM
  relative viability: 0.493
[8]; first compound 0.01581 µM
  relative viability: 0.428
[8]; first compound 0.05 µM
  relative viability: 0.513
[8]; first compound 0.1581 µM
  relative viability: 0.431
[8]; first compound 0.5 µM
  relative viability: 0.5
[9]; first compound 0.005 µM
  relative viability: 0.685
[9]; first compound 0.01581 µM
  relative viability: 0.807
[9]; first compound 0.05 µM
  relative viability: 0.733
[9]; first compound 0.1581 µM
  relative viability: 0.651
[9]; first compound 0.5 µM
  relative viability: 0.667
[10]; first compound 0.005 µM
  relative viability: 0.585
[10]; first compound 0.01581 µM
  relative viability: 0.646
[10]; first compound 0.05 µM
  relative viability: 0.657
[10]; first compound 0.1581 µM
  relative viability: 0.637
[10]; first compound 0.5 µM
  relative viability: 0.723
[11]; first compound 0.005 µM
  relative viability: 0.645
[11]; first compound 0.01581 µM
  relative viability: 0.584
[11]; first compound 0.05 µM
  relative viability: 0.612
[11]; first compound 0.1581 µM
  relative viability: 0.602
[11]; first compound 0.5 µM
  relative viability: 0.578
[12]; first compound 0.005 µM
  relative viability: 0.187
[12]; first compound 0.01581 µM
  relative viability: 0.217
[12]; first compound 0.05 µM
  relative viability: 0.215
[12]; first compound 0.1581 µM
  relative viability: 0.222
[12]; first compound 0.5 µM
  relative viability: 0.206
[13]; first compound 0.005 µM
  relative viability: 0.613
[13]; first compound 0.01581 µM
  relative viability: 0.612
[13]; first compound 0.05 µM
  relative viability: 0.641
[13]; first compound 0.1581 µM
  relative viability: 0.727
[13]; first compound 0.5 µM
  relative viability: 0.639
[14]; first compound 0.005 µM
  relative viability: 0.36
[14]; first compound 0.01581 µM
  relative viability: 0.414
[14]; first compound 0.05 µM
  relative viability: 0.352
[14]; first compound 0.1581 µM
  relative viability: 0.362
[14]; first compound 0.5 µM
  relative viability: 0.405
[15]; first compound 0.005 µM
  relative viability: 0.281
[15]; first compound 0.01581 µM
  relative viability: 0.281
[15]; first compound 0.05 µM
  relative viability: 0.253
[15]; first compound 0.1581 µM
  relative viability: 0.293
[15]; first compound 0.5 µM
  relative viability: 0.268
[16]; first compound 0.005 µM
  relative viability: 0.461
[16]; first compound 0.01581 µM
  relative viability: 0.446
[16]; first compound 0.05 µM
  relative viability: 0.487
[16]; first compound 0.1581 µM
  relative viability: 0.376
[16]; first compound 0.5 µM
  relative viability: 0.451
[17]; first compound 0.005 µM
  relative viability: 0.569
[17]; first compound 0.01581 µM
  relative viability: 0.594
[17]; first compound 0.05 µM
  relative viability: 0.62
[17]; first compound 0.1581 µM
  relative viability: 0.57
[17]; first compound 0.5 µM
  relative viability: 0.659
[18]; first compound 0.005 µM
  relative viability: 0.716
[18]; first compound 0.01581 µM
  relative viability: 0.74
[18]; first compound 0.05 µM
  relative viability: 0.688
[18]; first compound 0.1581 µM
  relative viability: 0.744
[18]; first compound 0.5 µM
  relative viability: 0.704
[19]; first compound 0.005 µM
  relative viability: 0.331
[19]; first compound 0.01581 µM
  relative viability: 0.363
[19]; first compound 0.05 µM
  relative viability: 0.35
[19]; first compound 0.1581 µM
  relative viability: 0.346
[19]; first compound 0.5 µM
  relative viability: 0.404
[20]; first compound 0.005 µM
  relative viability: 0.361
[20]; first compound 0.01581 µM
  relative viability: 0.362
[20]; first compound 0.05 µM
  relative viability: 0.302
[20]; first compound 0.1581 µM
  relative viability: 0.315
[20]; first compound 0.5 µM
  relative viability: 0.394
[21]; first compound 0.005 µM
  relative viability: 0.678
[21]; first compound 0.01581 µM
  relative viability: 0.646
[21]; first compound 0.05 µM
  relative viability: 0.789
[21]; first compound 0.5 µM
  relative viability: 0.712
